# In patent US20210122730A1, “GLUCOCORTICOID RECEPTOR MODULATORS” (ORIC Pharmaceuticals, Inc., priority 2017, published 2021):
# pIC50: −log10 of the molar value.
# Molecular target: T1, GR (Homo sapiens, UniProt P04150)
# T1 construct: expressed in transfected cells; host or cells: CHO-K1
# T1 sequence (P04150 1-777): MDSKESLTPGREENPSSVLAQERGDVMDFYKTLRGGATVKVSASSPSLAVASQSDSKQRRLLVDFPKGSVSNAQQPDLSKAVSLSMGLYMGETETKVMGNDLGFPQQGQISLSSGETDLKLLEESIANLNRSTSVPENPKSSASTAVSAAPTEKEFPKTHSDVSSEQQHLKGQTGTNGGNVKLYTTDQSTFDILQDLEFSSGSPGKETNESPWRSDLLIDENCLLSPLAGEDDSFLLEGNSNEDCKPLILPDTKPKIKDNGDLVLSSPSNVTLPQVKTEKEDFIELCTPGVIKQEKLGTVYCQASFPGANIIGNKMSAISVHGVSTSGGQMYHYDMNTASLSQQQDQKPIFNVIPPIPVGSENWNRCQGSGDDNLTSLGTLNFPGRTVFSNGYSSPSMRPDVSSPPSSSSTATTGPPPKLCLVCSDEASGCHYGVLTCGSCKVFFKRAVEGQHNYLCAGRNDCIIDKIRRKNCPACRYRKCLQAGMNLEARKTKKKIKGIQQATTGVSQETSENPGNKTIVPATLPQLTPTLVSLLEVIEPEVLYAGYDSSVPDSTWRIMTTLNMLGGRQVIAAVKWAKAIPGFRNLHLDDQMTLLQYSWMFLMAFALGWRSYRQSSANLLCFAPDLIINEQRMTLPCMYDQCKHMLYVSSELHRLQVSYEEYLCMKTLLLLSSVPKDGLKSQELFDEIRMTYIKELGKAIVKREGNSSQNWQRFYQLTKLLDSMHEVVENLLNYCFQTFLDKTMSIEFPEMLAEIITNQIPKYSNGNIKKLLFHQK
# Experiment: In Vitro GR Luciferase Reporter Assay (antagonist mode, CHO-K1-GR-MMTV-Luc reporter cells)
# Assay type: cell-based
# Conditions: antagonist mode, 10 nM Dexamethasone
# Summary of the method: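 Antagonist mode: compounds (8 serial 1:5 dilutions) added to GR-MMTV-luciferase CHO-K1 reporter cells co-exposed to 10 nM dexamethasone final, in phenol red-free DMEM plus 10% CSS. After roughly 18-24 h at 37° C, OneGlo luminescence read and IC50 calculated.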
row,SMILES,pIC50
1,"O=C(c1cc(F)ccn1)[C@]12Cc3cnn(-c4ccc(F)cc4)c3C=C1CC[C@H](N(CCF)S(=O)(=O)c1ccc(F)cc1)C2 [Example 389, 4-fluoro-N-(2-fluoroethyl)-N-((4aS,6S)-1-(4-fluorophenyl)-4a-(4-fluoropicolinoyl)-4,4a,5,6,7,8-hexahydro-1H-benzo[f]indazol-6-yl)benzenesulfonamide]",≥ 7.00
2,"O=C(c1cc(Cl)ccn1)[C@]12Cc3cnn(-c4ccc(F)cc4)c3C=C1CC[C@H](N(CCF)S(=O)(=O)c1ccc(F)cc1)C2 [Example 390, N-((4aS,6S)-4a-(4-chloropicolinoyl)-1-(4-fluorophenyl)-4,4a,5,6,7,8-hexahydro-1H-benzo[f]indazol-6-yl)-4-fluoro-N-(2-fluoroethyl)benzenesulfonamide]",≥ 7.00
3,"COCCOCCN([C@H]1CCC2=Cc3c(cnn3-c3ccc(F)cc3)C[C@]2(C(=O)c2ncc(C(F)(F)F)s2)C1)S(=O)(=O)c1ccc(F)cc1 [Example 391, 4-fluoro-N-((4aS,6S)-1-(4-fluorophenyl)-4a-(5-(trifluoromethyl)thiazole-2-carbonyl)-4,4a,5,6,7,8-hexahydro-1H-benzo[f]indazol-6-yl)-N-(2-(2-methoxyethoxy)ethyl)benzene-sulfonamide]",≥ 7.00
4,"Cn1cnc(S(=O)(=O)N(CCF)[C@H]2CCC3=Cc4c(cnn4-c4ccc(F)cc4)C[C@]3(C(=O)c3cc(F)ccn3)C2)n1 [Example 392, N-(2-fluoroethyl)-N-((4aS,6S)-1-(4-fluorophenyl)-4a-(4-fluoropicolinoyl)-4,4a,5,6,7,8-hexahydro-1H-benzo[f]indazol-6-yl)-1-methyl-1H-1,2,4-triazole-3-sulfonamide]",≥ 7.00
5,"Cn1cnc(S(=O)(=O)N(CCF)[C@H]2CCC3=Cc4c(cnn4-c4ccc(F)cc4)C[C@]3(C(=O)c3cc(Cl)ccn3)C2)n1 [Example 393, N-((4aS,6S)-4a-(4-chloropicolinoyl)-1-(4-fluorophenyl)-4,4a,5,6,7,8-hexahydro-1H-benzo[f]indazol-6-yl)-N-(2-fluoroethyl)-1-methyl-1H-1,2,4-triazole-3-sulfonamide]",≥ 7.00
6,"Cn1cc(S(=O)(=O)N(CCF)[C@H]2CCC3=Cc4c(cnn4-c4ccc(F)cc4)C[C@]3(C(=O)c3ncc(C(F)(F)F)s3)C2)nn1 [Example 394, N-(2-fluoroethyl)-N-((4aS,6S)-1-(4-fluorophenyl)-4a-(5-(trifluoromethyl)thiazole-2-carbonyl)-4,4a,5,6,7,8-hexahydro-1H-benzo[f]indazol-6-yl)-1-methyl-1H-1,2,3-triazole-4-sulfonamide]",≥ 7.00
7,"Cn1cc(S(=O)(=O)N(CCF)[C@H]2CCC3=Cc4c(cnn4-c4ccc(F)cc4)C[C@]3(C(=O)c3cc(C(F)(F)F)ccn3)C2)nn1 [Example 395, N-(2-fluoroethyl)-N-((4aS,6S)-1-(4-fluorophenyl)-4a-(4-(trifluoromethyl)picolinoyl)-4,4a,5,6,7,8-hexahydro-1H-benzo[f]indazol-6-yl)-1-methyl-1H-1,2,3-triazole-4-sulfonamide]",≥ 7.00
8,"Cn1cc(S(=O)(=O)N(CCF)[C@H]2CCC3=Cc4c(cnn4-c4ccc(F)cc4)C[C@]3(C(=O)c3ncc(C(F)(F)F)s3)C2)cn1 [Example 396, N-(2-fluoroethyl)-N-((4aS,6S)-1-(4-fluorophenyl)-4a-(5-(trifluoromethyl)thiazole-2-carbonyl)-4,4a,5,6,7,8-hexahydro-1H-benzo[f]indazol-6-yl)-1-methyl-1H-pyrazole-4-sulfonamide]",≥ 7.00

# Second part, the compound after the results:
row,pIC50,SMILES
1,≥ 7.00,"CCN([C@H]1CCC2=Cc3c(cnn3-c3ccc(F)cc3)C[C@]2(C(=O)c2ncc(C(F)(F)F)s2)C1)S(=O)(=O)c1cncn1C [Example 376, N-ethyl-N-((4aS,6S)-1-(4-fluorophenyl)-4a-(5-(trifluoromethyl)thiazole-2-carbonyl)-4,4a,5,6,7,8-hexahydro-1H-benzo[f]indazol-6-yl)-1-methyl-1H-imidazole-5-sulfonamide]"
2,≥ 7.00,"Cn1cnc(S(=O)(=O)N(CC(F)(F)F)[C@H]2CCC3=Cc4c(cnn4-c4ccc(F)cc4)C[C@]3(C(=O)c3cc(C(F)(F)F)ccn3)C2)n1 [Example 378, N-((4aS,6S)-1-(4-fluorophenyl)-4a-(4-(trifluoromethyl)picolinoyl)-4,4a,5,6,7,8-hexahydro-1H-benzo[f]indazol-6-yl)-1-methyl-N-(2,2,2-trifluoroethyl)-1H-1,2,4-triazole-3-sulfonamide]"
3,≥ 7.00,"Cn1cnc(S(=O)(=O)CC2CCC3=Cc4c(cnn4-c4ccc(F)cc4)C[C@]3(C(=O)c3ncc(C(F)(F)F)s3)C2)n1 (stereo partly drawn) [Example 379, ((4aR)-1-(4-fluorophenyl)-6-(((1-methyl-1H-1,2,4-triazol-3-yl)sulfonyl)methyl)-1,4,5,6,7,8-hexahydro-4aH-benzo[f]indazol-4a-yl)(5-(trifluoromethyl)thiazol-2-yl)methanone]"
4,≥ 7.00,"Cn1ccc(S(=O)(=O)N(CCF)[C@H]2CCC3=Cc4c(cnn4-c4ccc(F)cc4)C[C@]3(C(=O)c3cc(C(F)(F)F)ccn3)C2)n1 [Example 380, N-(2-fluoroethyl)-N-((4aS,6S)-1-(4-fluorophenyl)-4a-(4-(trifluoromethyl)picolinoyl)-4,4a,5,6,7,8-hexahydro-1H-benzo[f]indazol-6-yl)-1-methyl-1H-pyrazole-3-sulfonamide]"
5,≥ 7.00,"CO[C@]1(C)C[C@H](N([C@H]2CCC3=Cc4c(cnn4-c4ccc(F)cc4)C[C@]3(C(=O)c3cc(Cl)ccn3)C2)S(=O)(=O)c2ccn(C)n2)C1 [Example 381, N-((4aS,6S)-4a-(4-chloropicolinoyl)-1-(4-fluorophenyl)-4,4a,5,6,7,8-hexahydro-1H-benzo[f]indazol-6-yl)-N-((1s,3R)-3-methoxy-3-methylcyclobutyl)-1-methyl-1H-pyrazole-3-sulfonamide]"
6,≥ 7.00,"Cn1cnc(S(=O)(=O)N(CCF)[C@H]2CCC3=Cc4c(cnn4-c4ccc(F)cc4)C[C@]3(C(=O)c3ncc(C(F)(F)F)s3)C2)n1 [Example 382, N-(2-fluoroethyl)-N-((4aS,6S)-1-(4-fluorophenyl)-4a-(5-(trifluoromethyl)thiazole-2-carbonyl)-4,4a,5,6,7,8-hexahydro-1H-benzo[f]indazol-6-yl)-1-methyl-1H-1,2,4-triazole-3-sulfonamide]"
7,≥ 7.00,"Cn1cnc(S(=O)(=O)N(CC(F)F)[C@H]2CCC3=Cc4c(cnn4-c4ccc(F)cc4)C[C@]3(C(=O)c3ncc(C(F)(F)F)s3)C2)c1 [Example 383, N-(2,2-difluoroethyl)-N-((4aS,6S)-1-(4-fluorophenyl)-4a-(5-(trifluoromethyl)thiazole-2-carbonyl)-4,4a,5,6,7,8-hexahydro-1H-benzo[f]indazol-6-yl)-1-methyl-1H-imidazole-4-sulfonamide]"
8,≥ 7.00,"CO[C@]1(C)C[C@H](N([C@H]2CCC3=Cc4c(cnn4-c4ccc(F)cc4)C[C@]3(C(=O)c3cc(C(F)(F)F)ccn3)C2)S(=O)(=O)c2ccn(C)n2)C1 [Example 384, N-((4aS,6S)-1-(4-fluorophenyl)-4a-(4-(trifluoromethyl)picolinoyl)-4,4a,5,6,7,8-hexahydro-1H-benzo[f]indazol-6-yl)-N-((1s,3R)-3-methoxy-3-methylcyclobutyl)-1-methyl-1H-pyrazole-3-sulfonamide]"
9,≥ 7.00,"Cn1cnc(S(=O)(=O)N(CCF)[C@H]2CCC3=Cc4c(cnn4-c4ccc(F)cc4)C[C@]3(C(=O)c3cc(C(F)(F)F)ccn3)C2)n1 [Example 385, N-(2-fluoroethyl)-N-((4aS,6S)-1-(4-fluorophenyl)-4a-(4-(trifluoromethyl)picolinoyl)-4,4a,5,6,7,8-hexahydro-1H-benzo[f]indazol-6-yl)-1-methyl-1H-1,2,4-triazole-3-sulfonamide]"
10,≥ 7.00,"O=C(c1ncc(C(F)(F)F)s1)[C@]12Cc3cnn(-c4ccc(F)cc4)c3C=C1CC[C@H](N(CCF)S(=O)(=O)c1ccc(F)cc1)C2 [Example 386, 4-fluoro-N-(2-fluoroethyl)-N-((4aS,6S)-1-(4-fluorophenyl)-4a-(5-(trifluoromethyl)thiazole-2-carbonyl)-4,4a,5,6,7,8-hexahydro-1H-benzo[f]indazol-6-yl)benzenesulfonamide]"
11,≥ 7.00,"O=C(c1cc(C(F)(F)F)ccn1)[C@]12Cc3cnn(-c4ccc(F)cc4)c3C=C1CC[C@H](N(CCF)S(=O)(=O)c1ccc(F)cc1)C2 [Example 387, 4-fluoro-N-(2-fluoroethyl)-N-((4aS,6S)-1-(4-fluorophenyl)-4a-(4-(trifluoromethyl)picolinoyl)-4,4a,5,6,7,8-hexahydro-1H-benzo[f]indazol-6-yl)benzenesulfonamide]"
12,≥ 7.00,"Cn1cnc(S(=O)(=O)N(CCC#N)[C@H]2CCC3=Cc4c(cnn4-c4ccc(F)cc4)C[C@]3(C(=O)c3ncc(C(F)(F)F)s3)C2)n1 [Example 388, N-(2-cyanoethyl)-N-((4aS,6S)-1-(4-fluorophenyl)-4a-(5-(trifluoromethyl)thiazole-2-carbonyl)-4,4a,5,6,7,8-hexahydro-1H-benzo[f]indazol-6-yl)-1-methyl-1H-1,2,4-triazole-3-sulfonamide]"
